Source: paper PMC13375149 (Journal of Raman spectroscopy : JRS, 2025)

Legend:
[1] = SERS detection and time profile of PAHs/PAC in murine tissue extracts; type: in vivo, mice (C57BL6J)
[2] = GC-MS/MS quantification of B[a]P, PYR and TQE in tissues; type: in vivo, mice (C57BL6J)
[3] = 24, 48, 72 h post-injection, t(1) < 12.71, p > 0.05 as printed

Row | Compound | Detection in liver and kidney tissues using SERS and SEIRA ([1]; mice exposed to individual PAHs or PACs, Figs. S3 and S4) | Statistical significance of GC-MS/MS tissue concentrations [2, 3] | Detection in liver and kidney tissues using SERS and SEIRA ([1]; mouse, in vivo) | Statistical significance of GC-MS/MS tissue concentrations ([2]; female, C57BL6J, mouse, in vivo) | Tissue accumulation relative to the other analyzed compounds ([2]; IP mixture, brain, kidney, liver, lung, 24-72 h post-exposure)
1 | c1cc2ccc3cccc4ccc(c1)c2c34 [PYR, pyrene] | successful detection | statistically significant across all tissues and time points | – | – | –
2 | c1ccc2c(c1)cc1ccc3cccc4ccc2c1c34 [B[a]P, benzo(a)pyrene] | – | – | successful detection | statistically significant except in lung at 72 hours post-injection | –
3 | O=C1c2ccccc2C(=O)c2cc3ccccc3cc21 [TQE, 5,12-Naphthacenequinone] | – | statistically significant across all tissues and time points | successful detection | – | lowest accumulation
